Laboratory results reported in paper PMC6270194 (Molecules, 2013).
Marks after values point to notes of the source that are not given here.

How the values were obtained:
[1] = Ferric reducing ability of plasma (FRAP) assay; conditions: for FRAP antioxidant capacity: 10 μM compounds dissolved in DMSO, Trolox equivalence, mean ± SD
Source text: The FRAP assay uses antioxidants in a redox-linked colorimetric assay to reduce ferric tripyridyl triazine to ferrous form at low pH [20].
FRAP assay is based on ferric to ferrous ion reduction to test the electron donating capacity of antioxidants. The assay was modified by using the 96-well microplate reader with an injection port system. Briefly, the FRAP working reagent was made using acetate buffer, 2,4,6-Tris (2-pyridyl)-s-triazine solution and ferric chloride in the ratio 10:1:1. […] After 6 min reaction time, absorbance was measured at 593 nm. Trolox standards at different concentrations were used to calculate the antioxidant capacity as mmol Trolox equivalence per L.

[2] = Oxygen radical absorbance capacity (ORAC) assay; conditions: for ORAC antioxidant capacity: 1 μM compounds dissolved in DMSO, Trolox equivalence, mean ± SD
Protocol: ORAC assay is based on the free radical damage to a fluorescence probe measured by fluorescence intensity over the time. The fluorescein sodium salt was used as fluorescence probe and change in its intensity was estimated as the index of the degree of free radical damage. Assay was performed using method described elsewhere. Briefly, the standards and samples were prepared using 75 mM phosphate buffer (pH 7). As the peroxy radicals are generated from decomposition of 2,2'-azobis(2-amidino-propane) dihydrochloride (AAPH), the signal was quenched from fluorescein. However, in the presence of antioxidant samples the fluorescence signal can be stabilize which depends directly upon the antioxidant’s capacity to neutralize the free radical. Quadratic relation emerging from florescent area under the decaying curve was used to calculate antioxidant capacity as mmol Trolox equivalence per L.

[3] = system: angiotensin converting enzyme (ACE); assay: Angiotensin converting enzyme (ACE) inhibition assay; format: biochemical; conditions: 10 μM compounds dissolved in DMSO
Protocol: ACE assay is based on ACE inhibitory activity of test samples. The enzyme activity was measured by production of hippuric acid from the substrate hippuryl-L-histidyl-L-leucine (HHL). ACE cleaves the substrate to expose a free N-terminus, which was fluorogenically labeled with o-phthaldialdehyde (OPA). The florescence signal was measured by using excitation of 350 nm and emission of 500 nm. ACE inhibition activity of samples was measured using the following equation: % inhibition = 100 − (Acontrol − Asample)/Acontrol × 100 (1) where A is the absorbance Equation (1).

[4] = DPPH· free radical scavenging assay; conditions: for IC50: DPPH· scavenging, 0.2 mM DPPH· in DMSO, absorbance 515 nm; for antiradical capacity lower than other series 3 analogues (fold): relative to other curcumin analogues in series 3
Protocol: DPPH^· assay is widely used to observe radical scavenging activity of various compounds and extracts. DPPH^· is stable N radical which is reduced to hydrazine during its reaction with hydrogen donors.
Initially, 0.2 mM DPPH^· solution was prepared using DMSO as the solvent. […] During reduction of DPPH^· solution by antiradical compound, absorption of DPPH^· was measured at 515 nm. The spectrophotometric data was acquired using BMG FLUOstar OPTIMA spectrophotometer (BMG Labtech, Durham, NC, USA) and the IC50 values were calculated.

[5] = molecular target: T1, HIV-1 protease (Human immunodeficiency virus type 1 group M subtype B, UniProt P04585); assay: HIV-1 protease inhibition assay (fluorescent substrate); format: biochemical; conditions: 10 μM compounds dissolved in DMSO; for inhibition at 10 µM: read-out: % Enzyme Inhibition HIV-I protease
T1 construct: HIV-1 protease enzyme (Sigma Aldrich); purchased Sigma Aldrich
Protocol: HIV-1 protease inhibition was performed by using a previously described method. HIV protease fluorescent substrate and HIV-1 protease enzyme (Sigma Aldrich) were used to determine HIV inhibition capacity of sample. Three primary controls i.e., blank, sample and positive control were used. Reaction mixture of 200 µL comprised of five enzyme units (5U) of HIV-1 protease along with 0.5 pmol of enzyme substrate. After addition of both enzymes and substrates, test compounds were added in different concentrations. Reaction mixture was incubated at 37 °C which leads to generation of fluorescence signal by cleaving Tyr-Pro peptide bond of the substrate. Finally reaction mixture was heated for 5 minutes at 90 °C to stop the reaction. The mixture was centrifuged at 12,000 rpm for 3 min. and supernatant was used to measure the fluorescence signal. The enzyme inhibition was calculated using the Equation (1).

[6] = system: Tyrosinase; assay: Tyrosinase inhibition assay (L-DOPA substrate); format: biochemical; conditions: 10 μM compounds dissolved in DMSO
Protocol: Tyrosinase inhibition was calculated based on previously described methods using L-DOPA as the substrate. Tyrosinase inhibition depended upon the amount of dopachrome produced in the reaction mixture. Absorption was measured at 490 nm to calculate the amount of dopachrome produced. The assay was performed in 96-well clear polystyrene plates using FLUOstar OPTIMA plate reader. The tyrosinase inhibitory effect of sample was measured using the following the Equation (1).

[7] = system: human endothelial lung cells; assay: Cytotoxicity analysis by LDH release assay; format: cell-based; conditions: 10 µM, 24 hours
Protocol: In the current study authors conducted a toxicology study to confirm safety of compounds and their dosage for potential animal or clinical studies. The study was conducted at 10 µM concentration using human endothelial lung cells. […] Literature reports on cytotoxic behavior of potent natural antioxidants are rare. Research in the field of free radicals mainly deals with screening of novel antioxidants and their mechanism of action.
Human lung cell line (ATCC® PCS-100-022™) was purchased from American Type Culture Collection (Cederlane, Burlington, ON, Canada). Cell lines were maintained and grown in DMEM complete growth media, supplemented with 10% fetal bovine serum (FBS), 100 units/mL penicillin and 100 µg/mL streptomycin (Cederlane) at 37 °C, in a humidified 5% CO2 incubator. Cell growth medium was changed every 48 hours and when cells reached 80% confluence, they were detached from 75 cm^2 tissue culture flask using 0.25% trypsin-EDTA treatment. The detached cells were collected in sterile tube in FBS free media. Collected cells were then counted using the Millipore Scepter 2.0 handheld automated cell counter. Further assay specific analysis was performed as described in section 2.10.
Cytotoxicity assay was performed using Promega Cytotox 96® non-radioactive colorimetric assay (Promega Corporation). The assay measures the lactate dehydrogenase (LDH) release upon cell lysis. The released LDH from cells was measured in an enzymatic assay based on conversion of tetrazolium salt to a red formazan product. Briefly, 5,000 human endothelial lung cells in 100 µL of serum-free culture medium were seeded in 96 well sterile plates. Cells were allowed to adhere to the plates for 24 h at 37 °C in a humidified, 5% CO2 incubator. After 24 h, the serum-free media was replaced by test compounds in 100 µL of serum-free culture medium. […] The test compounds at 10 µM concentration were allowed to interact with cells for 24 hours after which absorbance were recorded at 490 nm using BMG FLUOstar OPTIMA spectrophotometer (BMG Labtech, Durham, NC). […]

[8] = DPPH assay, relative to curcumin

O=C1/C(=C(O)/C=C/c2ccccc2)CCC/C1=C\c1ccccc1 [Compound 2a]
FRAP antioxidant capacity [1]: 1.13 ± 0.4 ^g mmole TE/L
ORAC antioxidant capacity [2]: 0.12 ± 0.01 ^g mmole TE/L
% Enzyme Inhibition ACE [3]: 19.69 ^g %
IC50 [4]: 2860 µM
inhibition at 10 µM [5]: 48.2%
% Enzyme Inhibition Tyrosinase [6]: 46.1 ^i %

COc1ccc(/C=C/C(O)=C2\CCC/C(=C\c3ccc(OC)cc3)C2=O)cc1 [Compound 2c]
FRAP antioxidant capacity [1]: 1.32 ± 0.001 ^f mmole TE/L
ORAC antioxidant capacity [2]: 0.11 ± 0.01 ^g mmole TE/L
% Enzyme Inhibition ACE [3]: 4.01 ^g %
DPPH· scavenging capacity weaker than curcumin (fold) [4, 8]: ~ 5 fold
IC50 [4]: 4070 µM
inhibition at 10 µM [5]: 43.7%
% Enzyme Inhibition Tyrosinase [6]: 40.63 ^j %

COc1cc(/C=C/C(O)=C2\CCC/C(=C\c3ccc(O)c(OC)c3)C2=O)ccc1O [Compound 2d]
FRAP antioxidant capacity [1]: 5.35 ± 0.1 ^b mmole TE/L
ORAC antioxidant capacity [2]: 0.50 ± 0.02 ^ef mmole TE/L
% Enzyme Inhibition ACE [3]: 84.59 ^ab %
IC50 [4]: 720 µM
inhibition at 10 µM [5]: 37.3%
% Enzyme Inhibition Tyrosinase [6]: 56.84 ^h %

O=C1/C(=C(O)/C=C/c2ccc(Cl)cc2)CCC/C1=C\c1ccc(Cl)cc1 [Compound 2f]
FRAP antioxidant capacity [1]: 1.28 ± 0.04 ^fg mmole TE/L
ORAC antioxidant capacity [2]: 0.49 ± 0.1 ^ef mmole TE/L
% Enzyme Inhibition ACE [3]: No ACE inhibition activity was detected
IC50 [4]: 710 µM
inhibition at 10 µM [5]: 9.9%
% Enzyme Inhibition Tyrosinase [6]: 60.15 ^ef %

Cc1ccc(/C=C/C(O)=C2\CCC/C(=C\c3ccc(C)cc3)C2=O)cc1 [Compound 2g]
FRAP antioxidant capacity [1]: 1.12 ± 0.02 ^g mmole TE/L
ORAC antioxidant capacity [2]: 0.84 ± 0.01 ^d mmole TE/L
% Enzyme Inhibition ACE [3]: 15.04 ^g %
IC50 [4]: 1360 µM
cytotoxicity ranking (LDH release), in words [7]: lowest cytotoxicity effects
inhibition at 10 µM [5]: 20.1%
% Enzyme Inhibition Tyrosinase [6]: 59.44 ^fg %

O=C1/C(=C(O)/C=C/c2ccccc2)CC/C1=C\c1ccccc1 [Compound 3a]
FRAP antioxidant capacity [1]: 1.41 ± 0.1 ^f mmole TE/L
ORAC antioxidant capacity [2]: 1.12 ± 0.1 ^c mmole TE/L
% Enzyme Inhibition ACE [3]: 51.96 ^ef %
radical scavenging capacity higher than curcumin (fold) [4, 8]: over 10 fold
IC50 [4]: 70 µM
inhibition at 10 µM [5]: 27%
% Enzyme Inhibition Tyrosinase [6]: 70.85 ^c %

O=C1/C(=C(O)/C=C/c2ccc(O)cc2)CC/C1=C\c1ccc(O)cc1 [Compound 3b]
FRAP antioxidant capacity [1]: 2.29 ± 0.1 ^e mmole TE/L
ORAC antioxidant capacity [2]: 0.49 ± 0.1 ^ef mmole TE/L
% Enzyme Inhibition ACE [3]: 90.55 ^ab %
radical scavenging capacity higher than curcumin (fold) [4, 8]: over 10 fold
IC50 [4]: 60 µM
inhibition at 10 µM [5]: 41.1%

Cc1ccc(/C=C/C(O)=C2\CC/C(=C\c3ccc(C)cc3)C2=O)cc1 [Compound 3g]
FRAP antioxidant capacity [1]: 0.95 ± 0.02 ^hi mmole TE/L
ORAC antioxidant capacity [2]: 1.25 ± 0.04 ^bc mmole TE/L
% Enzyme Inhibition ACE [3]: 46.19 ^ef %
antiradical capacity lower than other series 3 analogues (fold) ([4]; DPPH assay): approximately 10 fold
IC50 [4]: 510 µM
inhibition at 10 µM [5]: 22.7%
% Enzyme Inhibition Tyrosinase [6]: 67.18 ^d %

O=C1/C(=C(O)/C=C/c2ccc([N+](=O)[O-])cc2)CC/C1=C\c1ccc([N+](=O)[O-])cc1 [Compound 3h]
FRAP antioxidant capacity [1]: 1.05 ± 0.01 ^ghi mmole TE/L
ORAC antioxidant capacity [2]: 0.84 ± 0.1 ^d mmole TE/L
% Enzyme Inhibition ACE [3]: 88.01 ^ab %
antiradical capacity lower than other series 3 analogues (fold) ([4]; DPPH assay): approximately 10 fold
IC50 [4]: 360 µM
inhibition at 10 µM [5]: 44.8%
% Enzyme Inhibition Tyrosinase [6]: 59.22 ^fg %

(1E,6E)-1,7-bis(4-hydroxy-3-methoxyphenyl)-1,6-heptadiene-3,5-dione [Curcumin, reference compound]
FRAP antioxidant capacity [1]: 5.01 ± 0.1 ^c mmole TE/L
ORAC value, peroxyl radical scavenging capacity [2]: 5.01 mM TE/L
ORAC antioxidant capacity [2]: 1.89 ± 0.2 ^a mmole TE/L
% Enzyme Inhibition ACE [3]: 76.86 ^bc %
IC50 [4]: 860 µM
% Enzyme Inhibition Tyrosinase [6]: 12.61 ^k %

(E)-2-(3,4-dimethoxybenzylidene)-5-((E)-3-(3,4-dimethoxyphenyl)acryloyl)cyclopentanone [Compound 3e]
FRAP antioxidant capacity [1]: 0.67 ± 0.02 ^j mmole TE/L
ORAC antioxidant capacity [2]: 0.69 ± 0.1 ^e mmole TE/L
% Enzyme Inhibition ACE [3]: 56.95 ^de %
radical scavenging capacity higher than curcumin (fold) [4, 8]: over 10 fold
IC50 [4]: 30 µM
% Enzyme Inhibition HIV-I protease [5]: 44.5 ^cd %

(E)-2-(3,4-dimethoxybenzylidene)-6-((E)-3-(3,4-dimethoxyphenyl)acryloyl)cyclohexanone [Compound 2e]
FRAP antioxidant capacity [1]: 0.47 ± 0.1 ^k mmole TE/L
FRAP value ([1]; 10 µM concentration): 0.47 mM TE/L
ORAC antioxidant capacity [2]: 0.60 ± 0.1^e mmole TE/L
% Enzyme Inhibition ACE [3]: 36.56 ^f %
IC50 [4]: 2570 µM
% Enzyme Inhibition HIV-I protease [5]: 61.6 ^a %

(E)-2-(4-hydroxy-3-methoxybenzylidene)-5-((E)-3-(4-hydroxy-3-methoxyphenyl)acryloyl)-cyclopentanone [Compound 3d]
FRAP antioxidant capacity [1]: 6.70 ± 0.32 ^a mmole TE/L
ORAC antioxidant capacity [2]: 0.75 ± 0.05 ^d mmole TE/L
% Enzyme Inhibition ACE [3]: 93.89 ^a %
radical scavenging capacity higher than curcumin (fold) [4, 8]: over 10 fold
IC50 [4]: 70 µM
% Enzyme Inhibition HIV-I protease [5]: 41.8 ^de %
% Enzyme Inhibition Tyrosinase [6]: 79.99 ^b %

(E)-2-(4-hydroxybenzylidene)-6-((E)-3-(4-hydroxyphenyl)acryloyl)cyclohexanone [Compound 2b]
FRAP antioxidant capacity [1]: 3.02 ± 0.02 ^d mmole TE/L
ORAC antioxidant capacity [2]: 0.43 ± 0.1 ^f mmole TE/L
% Enzyme Inhibition ACE [3]: 88.73 ^ab %
IC50 [4]: 2580 µM
% Enzyme Inhibition HIV-I protease [5]: 55.5 ^b %
